Results reported in patent US9963453B2, “Substituted pyrazino[1,2-a]indoles as sigma receptor activity modulators” (LABORATORIOS DEL DR. ESTEVE S.A., priority 2013, dated 2018).

target: human sigma 1 receptor (Homo sapiens (Human), UniProt Q99720); assay: Human Sigma 1 Receptor Radioligand Assay; type: binding; details: transfected HEK-293 membranes, 5 nM [3H](+)-pentazocine as radioligand, 37° C., 120 minutes
Protocol: Human Sigma 1 Receptor Radioligand Assay
To investigate binding properties of sigma 1 receptor ligands to human sigma 1 receptor, transfected HEK-293 membranes and [^3H](+)-pentazocine (Perkin Elmer, NET-1056), as the radioligand, were used. The assay was carried out with 7 μg of membrane suspension, 5 nM of [^3H](+)-pentazocine in either absence or presence of either buffer or 10 μM Haloperidol for total and non-specific binding, respectively. Binding buffer contained Tris-HCl 50 mM at pH 8. Plates were incubated at 37° C. for 120 minutes. After the incubation period, the reaction mix was then transferred to MultiScreen HTS, FC plates (Millipore), filtered and plates were washed 3 times with ice-cold 10 mM TrisHCL (pH7.4). Filters were dried and counted at approximately 40% efficiency in a MicroBeta scintillation counter (Perkin-Elmer) using EcoScint liquid scintillation cocktail.

human sigma 1 receptor, sequence (Q99720 whole entry): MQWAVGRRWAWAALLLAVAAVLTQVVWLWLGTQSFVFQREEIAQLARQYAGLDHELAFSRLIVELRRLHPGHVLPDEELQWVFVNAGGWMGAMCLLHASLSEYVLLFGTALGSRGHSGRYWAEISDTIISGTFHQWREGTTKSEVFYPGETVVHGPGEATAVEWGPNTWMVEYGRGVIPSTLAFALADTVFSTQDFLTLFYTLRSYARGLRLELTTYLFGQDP

SMILES	Ki
C[C@H](CC(=O)N1CCn2c(cc3ccccc32)C1)N1CCN(C)CC1 [Example 50, (R)-1-(3,4-dihydropyrazino[1,2-a]indol-2(1H)-yl)-3-(4-methylpiperazin-1-yl)butan-1-one]	251 nM
C[C@@H](C(=O)N1CCN2c3ccccc3C[C@@H]2C1)N1CCN(C2CCCCC2)CC1 [Example 52, (S)-2-(4-cyclohexylpiperazin-1-yl)-1-((R)-3,4,10,10a-tetrahydropyrazino[1,2-a]indol-2(1H)-yl)propan-1-one]	142 nM
C[C@H](C(=O)N1CCN2c3ccccc3C[C@@H]2C1)N1CCN(C2CCCCC2)CC1 [Example 54, (R)-2-(4-cyclohexylpiperazin-1-yl)-1-((R)-3,4,10,10a-tetrahydropyrazino[1,2-a]indol-2(1H)-yl)propan-1-one]	71.6 nM

The remaining lines, values ahead:

Ki	SMILES
91.7 nM	C[C@@H](CC(=O)N1CCn2c(cc3ccccc32)C1)N1CCN(C)CC1 [Example 49, (S)-1-(3,4-dihydropyrazino[1,2-a]indol-2(1H)-yl)-3-(4-methylpiperazin-1-yl)butan-1-one]
59.9 nM	C[C@H](C(=O)N1CCN2c3ccccc3C[C@H]2C1)N1CCN(C2CCCCC2)CC1 [Example 51, (R)-2-(4-cyclohexylpiperazin-1-yl)-1-((S)-3,4,10,10a-tetrahydropyrazino[1,2-a]indol-2(1H)-yl)propan-1-one]
94.7 nM	C[C@@H](C(=O)N1CCN2c3ccccc3C[C@H]2C1)N1CCN(C2CCCCC2)CC1 [Example 53, (S)-2-(4-cyclohexylpiperazin-1-yl)-1-((S)-3,4,10,10a-tetrahydropyrazino[1,2-a]indol-2(1H)-yl)propan-1-one]
